# Legend:
# BZLF1 = assay: p65HSF1 and BZLF1 sgRNA transfection into SNU-719 cells stably expressing HA-dCas9-EGFP; format: cell-based, Epstein-Barr virus (EBV); conditions: compared among BZLF1 sgRNAs
# Procedure: SNU-719 and C666-1 cells stably expressing HA-dCas9-EGFP were cultivated in RPMI-1640 (Sigma) with 10% fetal bovine serum (FBS) (Gibco) and 1% GlutaMAX (Gibco) and cultured in a 37° C. incubator with 5% CO2. EBV reactivation experiments were conducted with cells seeded into 6-well plates at 2×10^6 cells per well the day before transfection. 1 microgram (μg) of p65HSF1 and 1 microgram (μg) of control sgRNA or individual BZLF1 sgRNA1 (SEQ ID NO: 8), sgRNA2 (SEQ ID NO: 9), sgRNA 3 (SEQ ID NO: 10), or sgRNA4 (SEQ ID NO: 11) were transfected into cells with Lipofectamine 2000 (Invitrogen). After transfection, cells were grown for 48 hours and harvested for FACS, protein extraction, or RNA extraction (FIGS. 14A-14C). […] The expression of EBV immediate early protein BRLF1 (Rta) and early protein BGLF4 (PK) were also detectable (FIG. 14B).
# [1] = system: EBV early proteins EA-D and PK; assay: BZLF1 and BRLF1 gRNA co-transfection in C666-1 cells, EBV lytic protein expression; format: cell-based, Epstein-Barr virus (EBV); conditions: cell lysate 48 hours post-transfection
# EBV lytic genes = assay: EBV lytic gene induction in DOX-induced SNU-719 dCas9-Tet-on-PUFa-p65HSF1 gRNA cells; format: cell-based, Epstein-Barr virus (EBV)
# Excerpt: SNU-719 and C666-1 cancer cells stably expressing HA-dCas9-EGFP and BZLF1 gRNA (A5) were modified to inducibly express 3×FLAG-PUFa-p65HSF1 using a Tetracycline response element (Tet-On). […] This reactivation of EBV slows the growth rate of cells by greater than 4 fold compared with cells treated with ganciclovir (GCV) alone, a current standard treatment for EBV infection (FIGS. 3B, 6A, 8H-8I). Further, treatment with BZLF1 gRNA (A5) decreases C666-1 cell viability by 50-70% relative to control (FIG. 6B).
# Producing Tet-on PUFa-p65HSF1 cell line. SNU-719 or C666-1 cells stably expressing HA-dCas9-EGFP were seeded into a 60 mm culture dish at 70% density. The cells were transfected with 1 μg hyPBase (transposase) and 2 μg dox-inducible PUFa-p65HSF1 in a piggyBac vector plasmid through Lipofectamine 2000 reagent (Invitrogen). At 6 hours post-transfection, cell culture medium was exchanged. At 48 hours post-transfection, cells were selected with hygromycin antibiotics.
# Producing Tet-on PUFa-p65HSF1 and BZLF1 gRNA (3) cell line. The day prior to transfection, HEK-293FT cells were seeded into a 10 cm culture dish at 70% density. […]. At 6 hours post-transfection, medium was exchanged for fresh. At 48 hours post-transfection, 5 mL of medium containing the lentivirus was collected and centrifuged for 10 minutes at 2,000 rpm to remove cellular debris. The supernatant was filtered through a 0.45-micron filter (Millipore), and the lentivirus was collected. SNU-719 dCas9-Tet-on-PUFa-p65HSF1 or C666-1 dCas9-Tet-on-PUFa-p65HSF1 cells were seeded into a 10 cm culture dish at 60% density per dish, transduced with 7 mL of the BZLF1 gRNA (A5) lentivirus in culture medium supplemented with 8 μg/mL polybrene for 48 hours, and subsequently selected with Puromycin antibiotics on the third day post-transduction.
# RNA in-situ hybridization ISH (RNAscope®). Doxycycline (DOX) treated or untreated SNU-719 HA-dCas9-EGFP-Tet-on-PUFa-p65HSF1-BZLF1 gRNA (A5) cells or C666-1-HA-dCas9-Tet-on-PUFa-p65HSF1-BZLF1 gRNA (A5) cells were incubated for 48 hours. […]
# EBV-negative AKATA cells = assay: Functional virion proliferation assay; format: cell-based
# Procedure: Functional virion proliferation assay. SNU-719 HA-dCas9-Tet-on-PUFa-p65HSF1-BZLF1 gRNA (3) or C666-1 HA-dCas9-Tet-on-PUFa-p65HSF1-BZLF1 gRNA (A5) cells were seeded into 15 cm culture dish at 70% density the day before being treated with 1 μg/mL DOX. The supernatant was filtered utilizing a […] (Millipore), and virus was collected by ultra-centrifuged at 20,000 rpm for 4 hours at 4° C. and resuspended in 1:30 fresh medium. EBV negative AKATA cells were treated with the medium containing virus for 96 hours, and RNA samples were extracted for quantitative RT-PCR Analysis (FIG. 8J).
substance,measurement,setting,value
"BZLF1 gRNA (A5): BZLF1 gRNA spacer sequence SEQ ID NO: 10, GAAACTATGCATGAGCCAC (chemistry not given here)",expression level of BZLF1 in protein and RNA samples,BZLF1,highest expression level of BZLF1
same,"EBV reactivation, expression of the EBV early proteins EA-D and PK",[1],induce EBV reactivation
same,"expression of other EBV lytic genes including BRLF1 (Rta), BGLF4 (PK), BFRF3 (VCAp18), BMRF1, BdRF1 and BLLF1",EBV lytic genes; 1 μg/mL DOX,induces the expression of other EBV lytic genes
same,BZLF1 (Zta) reactivation,"EBV lytic genes; 1 μg/mL Doxycycline (DOX), Example 10",reactivated BZLF1 (Zta)
same,"induction of the BZLF1, BGLF4, BMRF1, and BFRF3 (VCAp18) EBV lytic genes",EBV lytic genes; 3×FLAG-PUFa-p65HSF1 induced with 1 μg/mL Doxycycline,reactivated EBV
same,"infection of EBV-negative AKATA cells, EBV gene expression detectable (e.g. LMP1, EBER1, EBNA1, BZLF1, BRLF1)",EBV-negative AKATA cells; supernatant from DOX treated C17 cells,able to infect the EBV-negative AKATA cells
same,"infection of EBV-negative AKATA cells, EBV gene expression detectable (e.g. LMP1, EBER1, EBNA1, BZLF1, BRLF1)",EBV-negative AKATA cells; supernatant from DOX treated SNU-719 cells,able to infect the EBV-negative AKATA cells
same,infection of EBV-negative AKATA cells and EBV gene expression (e.g. EBER1),"EBV-negative AKATA cells; supernatant from SNU-719 cells expressing HA-dCas9-EGFP, gRNA and 3×FLAG-PUFa-p65HSF1",able to infect and trigger the EBV gene expression
